Measured values: PMC10686989, “Distinct activation mechanisms of β-arrestin-1 revealed by ^19F NMR spectroscopy” (Nature Communications, 2023)

How the values were obtained:
[1] = tested on: βarr1-ΔCT (residues 1–382); experiment: 19F NMR (1D and CEST) of CT-truncated construct; assay type: biochemical, human; conditions: E206C site; PIP2 added to pre-activated ΔCT state
From the text: The cysteine-less mutant (C59V/C125S/C140L/C150V/C242V/C251V/C269S) of the long splice variant of human βarr1 was used for introduction of single site cysteine mutation for ^19F labeling. The sequence was codon-optimized for expression in Escherichia coli and cloned into a pET-28a(+) vector (Novagen), with an N-terminal 6xHis-tag, followed by an SSG linker and a thrombin cleavage site. All mutants, including the 1–382 (βarr1-ΔCT) and 1–395 truncation constructs, were generated using site-directed mutagenesis kits (Thermo Fisher). Primer sequences for generating the mutants are listed in Supplementary Table 4.
The ^19F-labeled βarr1 was diluted to 50 μM using buffer E before incubation with peptides or PIP2. The V2Rpp, β2AR-GRK2pp/GRK6pp or PIP2 were added at 1.2-fold, 3-fold, and 1.5-fold molar ratio excess to the protein, respectively. […]
(§1) All ^19F NMR spectra were recorded at 298 K using a Bruker AVANCE III HD 800 MHz spectrometer equipped with a ^1H-^19F/^13C/^15N TCI triple resonance cryogenic probe. […] The carrier frequency was set to −68.0 ppm and the spectra were recorded with 4k points and a spectral width of 15,000 Hz. […]
All NMR data were analyzed using the MestraNova 12.0.0 software (https://mnova.pl). […] Peak intensities, integrated peak area and linewidths were determined based on the fitted results. […]

[2] = tested on: βarr1-3Q (K232Q/R236Q/K250Q); experiment: 1D 19F NMR of PIP2-binding deficient mutant; assay type: biochemical, human; conditions: H295C site
Protocol: The ^19F-labeled βarr1 was diluted to 50 μM using buffer E before incubation with peptides or PIP2. The V2Rpp, β2AR-GRK2pp/GRK6pp or PIP2 were added at 1.2-fold, 3-fold, and 1.5-fold molar ratio excess to the protein, respectively. For the membrane-bound sample, the reconstituted nanodiscs were added at twofold molar ratio of βarr1. All complexes were incubated at 25 °C for 1 h, and the freshly prepared samples were immediately subjected to ^19F NMR experiments.
NMR samples were prepared in buffer E to a final volume of 140 μL, supplemented with 1 mM DTT, 10% D2O for field lock, and 1 μM sodium trifluoroacetate (STFA) as the internal chemical shift reference. All samples were sterile-filtered and loaded into sterile 3 mm NMR microtubes to prevent microbial contamination. Final protein concentrations vary for different constructs, depending on their expression levels and stabilities, but all in the range of 20–50 μM.
as §1
All NMR data were analyzed using the MestraNova 12.0.0 software (https://mnova.pl). […] Peak intensities, integrated peak area and linewidths were determined based on the fitted results.

CCCCCCCC(=O)OC[C@H](COP(=O)(O)O[C@@H]1[C@H](O)[C@H](O)[C@@H](OP(=O)(O)O)[C@H](OP(=O)(O)O)[C@H]1O)OC(=O)CCCCCCC [PIP2, diC8-PI(4,5)P2]
Active S2 conformation [1]: increases the active S2 conformation | Transition to S2 state [2]: such spectral changes were not observed
